According to patent EP3290412A1, “HIV-1 NUCLEOCAPSID INHIBITORS” (Università degli Studi di Siena, priority 2016, dated 2018):
Marks after values point to notes of the source that are not given here.

Legend:
[1] = tested on: NIH Catalogue Number: 7401; conditions: cited from earlier work; for Level of resistance: NRTI resistant strain 7401; for Fold change: strain 7401, resistant virus IC50 to wild-type reference virus IC50 ratio, cut-off in brackets
[2] = tested on: NIH Catalogue Number: 7400; conditions: cited from earlier work; for Level of resistance: NRTI resistant strain 7400; for Fold change: strain 7400, resistant virus IC50 to wild-type reference virus IC50 ratio, cut-off in brackets
[3] = tested on: NIH Catalogue Number: 11808; conditions: cited from earlier work; for Level of resistance: PI resistant strain 11808; for Fold change: strain 11808, resistant virus IC50 to wild-type reference virus IC50 ratio, cut-off in brackets
[4] = tested on: NIH Catalogue Number: 12465; conditions: cited from earlier work; for Level of resistance: PI resistant strain 12465; for Fold change: strain 12465, resistant virus IC50 to wild-type reference virus IC50 ratio, cut-off in brackets
[5] = tested on: HIV-1 reference strain NL4-3; assay: MonoCycle assay (TZM-bl cells); format: cell-based; conditions: Human immunodeficiency virus 1, NL43, TZM-bl, 48 h, read-out: Mono Cycle IC50 nM
Description: MonoCycle assay is a cell based assay allowing the evaluation of antiviral activity of HIV-1 inhibitors targeting the early steps of HIV-1 life cycle such as entry, uncoating of viral particles, reverse transcription and integration. The assay consists in the infection of TZM-bl cells (20,000/well) with the HIV-1 reference strain NL4-3 in presence of serial five-fold dilutions of the investigational inhibitors. After 48 hours, cells were lysed adding 40 µl of Glo Lysis Buffer (Promega) to each well for 5 minutes, then 40 µl of Brighy-Glo Luciferase Reagent (Promega) were added to each well for relative luminescence units (RLU) counting using Glo-Max Multi Detection System (Promega). RLU values from each well were elaborated using the GraphPad v5.0 software to calculate the IC50 of each compound.

[6] = molecular target: NC(11-55) (Human immunodeficiency virus type 1, UniProt P12493); assay: NC inhibition assay (NC-induced cTAR DNA destabilization, fluorescence); format: biochemical, HIV-1; conditions: for IC50: cTAR DNA 0.1 µM, 1 µM NC(11-55), 20 °C, pH 7.5, read-out: NC inhibition IC50; for inhibition at 100 µM: single point screening, positive = >25% inhibition at 100µM
Excerpt: The NC inhibition assay is based on the nucleic acid chaperone activity of the NC protein. NC destabilizes the secondary structure of cTAR DNA, the complementary sequence of the transactivation response element, which is involved in minus-strand DNA transfer during reverse transcription. In the assay, the cTAR sequence from the HIV-1 Mal strain (Bernacchi et al, J Mol Biol, 2002) is labeled with a dye (Alexa488 fluorophore) and a quencher 4-(4'-dimethylaminophenylazo)benzoic acid (Dabcyl) at its 5' and 3' ends, respectively. In the absence of destabilization, the close proximity of both cTAR ends results in a strong fluorescence quenching of the dye emission by the Dabcyl group. NC(11-55) added to cTAR at a ratio of 10 NC/cTAR melts the bottom of the cTAR stem, which increases the distance between the dye and the quencher and as a result increases the dye fluorescence signal [Shvadchak et al, (2009) Identification by high throughput screening of small compounds inhibiting the nucleic acid destabilization activity of the HIV-1 nucleocapsid protein. Biochimie, 916-923]. NCIs are expected to prevent the NC-induced destabilization of cTAR and thus reverse the NC-induced increase in the fluorescence of the labeled cTAR. The activity of the inhibitor is thus evaluated from the ratio of the fluorescence intensity observed in the presence of NC with the molecule to the one in the absence of the compound.
The doubly labelled cTAR DNA oligonucleotides (55nt) were synthesised and purified by IBA GmbH Nucleic Acids Product Supply (Göttingen, Germany). Extinction coefficient at 260 nm of 5.73 x 10^5 M^-1 cm^-1 was used to determine the concentration of cTAR.
The NC(11-55) peptide (Avilov et al, Antimicrob Agents Chemother, 2012) was synthesized by solid-phase peptide synthesis on a 433A synthesizer (ABI, Foster City, CA) as previously described [De Rocquigny H, (1991) First large scale chemical synthesis of the 72 amino acid HIV-1 nucleocapsid protein NCp7 in an active form. Biochem Biophys Res Commun., 1010-1018]. The peptide was stored lyophilized and was resuspended in water before use. The concentration of peptide was determined by using an extinction coefficient of 5.7 x 10^3 M^-1 cm^-1 at 280 nm. Next, 2.5 molar equivalents of ZnSO4 were added and pH was raised to its final value by adding buffer.
All experiments were performed at 20 °C in 25 mM Tris-HCl (pH 7.5), 30 mM NaCl, and 0.2 mM MgCl2. To evaluate the inhibition activity of compounds on NC-induced cTAR destabilization, cTAR DNA (0.1 µM) was preincubated with 1 µM NC(11-55) (molar ratio NC:cTAR = 10:1) for 15 min at room temperature before addition of compound. For single point screening, all compounds were tested at three final concentrations: 1 µM, 10 µM and 100 µM. For the IC50 determination, inhibition of NC-induced cTAR melting was monitored through addition of increasing concentrations of the selected molecules to the pre-formed NC(11-55)-cTAR complex. After the addition of compound, the mixture was incubated for 15 min at room temperature before the reading. The fluorescence signal was recorded with a plate reader Xenius (SAFAS Monaco) or Fluoromax 3 spectrofluorometer (Horiba Jobin-Yvon), and the excitation and emission wavelengths were 480 and 520 nm, respectively. The spectra were corrected for dilution, buffer fluorescence and screening effect (when it was required). In order to check the occurrence of aggregation, we performed additional reading of absorption with the plate reader Xenius (SAFAS Monaco) or Cary 4000 spectrophotometer (Agilent). […]

[7] = molecular target: T1, full length (1-55) HIV-1 NCp7 (Human immunodeficiency virus type 1 group M subtype B, UniProt P12493); assay: Electromobility Shift Assay (EMSA), competition for ssDNA binding; conditions: NCp7 300 nM, M13mp18 ssDNA; positive = >25% inhibition at 100µM
T1 construct: recombinant full length (1-55) HIV-1 NCp7 proteins; made in house
Excerpt: The assay used a recombinant full length (1-55) HIV-1 NCp7 proteins based on the NL4-3 sequence (GenBank accession number AF324493). The protein was expressed and purified as described in [Carteau, S., Gorelick, R. J. & Bushman, F. D. Coupled integration of human immunodeficiency virus type 1 cDNA ends by purified integrase in vitro: stimulation by the viral nucleocapsid protein. Journal of virology 73, 6670-6679 (1999)].
Competition for single-stranded (ss) DNA binding was realized by mixing 1 µL of serial dilutions of NC inhibitors (diluted in DMSO) with 44 µL of NCp7 (300 nM) in a reaction buffer (20 mM Tris-HCl pH 7.4, 2 mM MgCl2, 100 mM NaCl, 1 mM DTT). 5 µL of a 10 ng/µL (4 nM) solution of M13mp18 ssDNA (BayouBiolabs) were then added and the tubes were incubated for 25 minutes at 37 °C. The reaction was terminated by chilling the tubes on ice followed by the addition of 5 µL of a loading buffer (30% glycerol, 0.01% xylene cyanol, 10 mM Tris-HCl pH 7.4). Samples were then resolved on 25 cm-long, 1% (w/v) agarose gels (SeaKem LE Agarose, Lonza) in 0.5x TBE. Gels were run in a Sub-Cell GT cuvette (BioRad) for 18 h at room temperature at 3 V/cm, stained with SybrGold (Molecular Probes) and scanned for fluorescence using a Typhoon 8600 (GE Healthcare). The experiments were performed in triplicate. Competition efficiency was realized by measuring the relative distance in pixels between the unbound ssDNA control, the NCp7-bound ssDNA control and the bound ssDNA for each points of the titration with the ImageQuant software. The IC50 was estimated as the NC inhibitors concentrations for which the bound ssDNA migrated at 50% of the distance separating the bound from the unbound ssDNA.

[8] = tested on: HIV-1 reference strain NL4-3; assay: BiCycle assay (MT-2 then TZM-bl cells); format: cell-based; conditions: Human immunodeficiency virus 1, NL43, TZM-bl, read-out: BiCycle IC50 nM
Description: BiCycle Assay is cell based assay allowing the evaluation of the antiviral activity of HIV-1 inhibitors on the whole replication cycle of HIV-1. The assay consists in a first round of infection of the T-cell line MT-2 followed by infection of TZM-bl cells. MT-2 cells were seeded at a concentration of 50,000 cells/well in a 96-well plate and infected with the HIV-1 reference strain NL4-3 in presence of five-fold dilutions of the investigational compounds. After 72 hours, 50 µl of supernatant from each well, containing the virus produced in the first round of infection, were used to infect TZM-bl cells seeded in a 96-plate well at a concentration of 30,000 cells/well. Two days later, cells were lysed adding 40 µl of Glo Lysis Buffer (Promega) to each well for 5 minutes, then 40 µl of Brighy-Glo Luciferase Reagent (Promega) were added to each well for relative luminescence units (RLU) counting using Glo-Max Multi Detection System (Promega). RLU values from each well were elaborated using the GraphPad v5.0 software to calculate the IC50 of each compound.

[9] = tested on: NIH Catalogue Number: 12229; conditions: cited from earlier work; for Level of resistance: NNRTI resistant strain 12229; for Fold change: strain 12229, resistant virus IC50 to wild-type reference virus IC50 ratio, cut-off in brackets
[10] = tested on: NIH Catalogue Number: 12231; conditions: cited from earlier work; for Level of resistance: NNRTI resistant strain 12231; for Fold change: strain 12231, resistant virus IC50 to wild-type reference virus IC50 ratio, cut-off in brackets

## Nc1nc(NC2CC2)c2ncn([C@H]3C=C[C@@H](CO)C3)c2n1 [Abacavir]
[1]
  Level of resistance: High resistance
  Fold change: 7.4 (4.5^c)
[2]
  Level of resistance: High resistance
  Fold change: 7.7 (4.5^c)

## COC(=O)N[C@H](C(=O)N[C@@H](Cc1ccccc1)[C@@H](O)CN(Cc1ccc(-c2ccccn2)cc1)NC(=O)[C@@H](NC(=O)OC)C(C)(C)C)C(C)(C)C [Atazanavir]
[3]
  Level of resistance: High resistance
  Fold change: 90 (2.2^c)
[4]
  Level of resistance: High resistance
  Fold change: 110 (2.2^c)

## O=C(c1nc(-c2ccccn2)nc(O)c1O)N1CCC(c2ccccc2)CC1 [Compound 9, (5,6-dihydroxy-2-(pyridin-2-yl)pyrimidin-4-yl)(4-phenylpiperidin-1-yl)methanone]
[5]
  IC50: 32900 nM
[6]
  IC50: 128 µM
  inhibition at 100 µM: > 25%
[7]
  EMSA screening results: Negative
[8]
  IC50: 2000 nM

## C[C@@H](NC(=O)c1nc(-c2nccc3[nH]ccc23)nc(O)c1O)C1CCCCC1 [Compound 85, (R)-N-(1-cyclohexylethyl)-5,6-dihydroxy-2-(1H pyrrolo[3,2-c]pyridin-4-yl)pyrimidine-4-carboxamide]
[5]
  IC50: > 50000 nM
[6]
  IC50: 11.5 µM
  inhibition at 100 µM: > 25%
[7]
  EMSA screening results: Positive (A compound showing >25% inhibition when tested at 100µM concentration is considered as "positive")
[8]
  IC50: 2670 nM

## CC(C)CN(C[C@@H](O)[C@H](Cc1ccccc1)NC(=O)O[C@H]1CO[C@H]2OCC[C@H]21)S(=O)(=O)c1ccc(N)cc1 [Darunavir]
[3]
  Level of resistance: High resistance
  Fold change: 127 (10^c)
[4]
  Level of resistance: Susceptible
  Fold change: 5.2 (10^c)

## O=C1Nc2ccc(Cl)cc2[C@@](C#CC2CC2)(C(F)(F)F)O1 [Efavirenz]
[9]
  Level of resistance: High resistance
  Fold change: >200 (3^b)
[10]
  Level of resistance: High resistance
  Fold change: 90 (3^b)

## Nc1nc(=O)n([C@@H]2CS[C@H](CO)O2)cc1F [Emtricitabine]
[1]
  Level of resistance: High resistance
  Fold change: >200 (3.5^c)
[2]
  Level of resistance: High resistance
  Fold change: >200 (3.5^c)

## Cc1cc(C#N)cc(C)c1Oc1nc(Nc2ccc(C#N)cc2)nc(N)c1Br [Etravirine]
[9]
  Level of resistance: High resistance
  Fold change: 6.8 (2.9^c)
[10]
  Level of resistance: High resistance
  Fold change: 8.8 (2.9^c)

## Cc1cccc(C)c1OCC(=O)N[C@@H](Cc1ccccc1)[C@@H](O)C[C@H](Cc1ccccc1)NC(=O)[C@H](C(C)C)N1CCCNC1=O [Lopinavir]
[3]
  Level of resistance: High resistance
  Fold change: 70 (10^c)
[4]
  Level of resistance: Intermediate resistance
  Fold change: 36 (10^c)

## Cc1ccnc2c1NC(=O)c1cccnc1N2C1CC1 [Nevirapine]
[9]
  Level of resistance: High resistance
  Fold change: >200 (4.5^b)
[10]
  Level of resistance: High resistance
  Fold change: >200 (4.5^b)

## C[C@H](Cn1cnc2c(N)ncnc21)OCP(=O)(O)O [Tenofovir]
[1]
  Level of resistance: High resistance
  Fold change: 1.5 (1.4^c)
[2]
  Level of resistance: High resistance
  Fold change: 2.3 (1.4^c)

## Cc1cn([C@H]2C[C@H](N=[N+]=[N-])[C@@H](CO)O2)c(=O)[nH]c1=O [Zidovudine]
[1]
  Level of resistance: High resistance
  Fold change: 24 (1.9^b)
[2]
  Level of resistance: High resistance
  Fold change: 61 (1.9^b)
